The values below come from patent US6545000B1, “[1,2,4]triazolo[1,5-c]pyrimidine derivatives” (Kyowa Hakko Kogyo Co., Ltd., priority 1998, dated 2003).

The subject of series [1] is reserpine-induced catalepsy. In words: Activity on reserpine-induced catalepsy. To be noted: oral; for Remission ratio (%): percentage reduction of total score vs control group; for Total score: total catalepsy score of 10 mice (maximum 50 points), reserpine 5 mg/kg s.c., 1 hour after administration. Type of series: in vivo, mouse. The protocol: This test was carried out using 10 animals per group of male ddY mice of 5 week age (22 to 24 g in body weight, Japan SLC). […] Reserpine (5 mg/kg: apoplon, Daiichi Pharmaceutical Co., Ltd.; diluted with distilled water) was subcutaneously administered, and catalepsy-inducing activity was observed from 18 hours after the administration. […] Each test compound was suspended in distilled water for injection containing 0.5% MC (manufactured by Otsuka Pharmaceutical Co., Ltd.) The suspension containing each of the test compounds or a solution containing no test compound (distilled water for injection containing 0.5% MC (manufactured by Otsuka Pharmaceutical Co., Ltd.); control) was orally administered (0.1 mL per 10 g mouse body weight) and, one hour after the administration of test compound, only forelimbs or only hindlimbs of each animal were laid on a stand having a size of 4.5 cm in height and 1.0 cm in width, to measure catalepsy symptoms.
The effect was judged by total catalepsy scores of 10 animals in one group (the maximum is 50 points). When the total score was 40 points or less, the activity of the test compound was judged positive. The number of animals showing remission of catalepsy was expressed by the number of cases in which the catalepsy score was 4 points or less in 10 cases. The catalepsy remission ratio was expressed as the percentage reduction of the total score in the test compound-administered group to the total score in the control group.

Series [2] has as its system CGS 21680-induced catalepsy. In words: Activity on CGS 21680-induced catalepsy. Type of series: in vivo, mouse. To be noted: 10 mg/kg oral; for inhibition in vivo at 10 mg/kg: Mus musculus, 1 h, percentage reduction of total score vs control group, read-out: Remission ratio (%); for Total score: total catalepsy score of 10 mice (maximum 50 points), 1 hour after administration. The protocol: This test was carried out using 10 animals per group of male ddY mice of 5 week age (22 to 25 g in body weight, Japan SLC). […] One hour after the administration of the test compound, only forelimbs or only hindlimbs of each animal were laid on a vertically arranged stand made of acryl, having a size of 4.5 cm in height and 1.0 cm in width, to measure catalepsy symptoms. All of the test compounds were administered orally in a dose of 10 mg/kg.
The effect was judged by total catalepsy scores of 10 animals in one group (the maximum score is 50 points). When total score was 40 points or less, the activity of the compounds was judged positive. The number of animals showing remission of catalepsy was expressed by the number of cases in which the catalepsy score was 4 points or less in 10 cases. The catalepsy remission ratio was expressed as the percentage reduction of the total score in the test compound-administered group to the total score in the control group.

Another series addresses T1, Rat A2A receptor (Rattus norvegicus, UniProt P30543).
T1 construct: from tissue; host or cells: rat corpus striatum membrane preparation
In words: Adenosine A2A receptor binding test (3H-CGS 21680 binding). The note with it: 10^−6 mol/L test compound, rat corpus striatum. The protocol:
The final precipitate was suspended in 50 mmol/L Tris-HCl buffer (containing 10 mmol/L magnesium chloride and 0.02 unit/mg tissue of adenosine deaminase (manufactured by Sigma Co.)) by adding the buffer to the final precipitate so as to give a tissue concentration of 5 mg (wet weight)/mL.
Inhibition ratio (%)={1−(amount of the binding in the presence of the test compound−amount of the non-specific binding)/(amount of the total binding−amount of the non-specific binding)}×100

T1 sequence (P30543 whole entry): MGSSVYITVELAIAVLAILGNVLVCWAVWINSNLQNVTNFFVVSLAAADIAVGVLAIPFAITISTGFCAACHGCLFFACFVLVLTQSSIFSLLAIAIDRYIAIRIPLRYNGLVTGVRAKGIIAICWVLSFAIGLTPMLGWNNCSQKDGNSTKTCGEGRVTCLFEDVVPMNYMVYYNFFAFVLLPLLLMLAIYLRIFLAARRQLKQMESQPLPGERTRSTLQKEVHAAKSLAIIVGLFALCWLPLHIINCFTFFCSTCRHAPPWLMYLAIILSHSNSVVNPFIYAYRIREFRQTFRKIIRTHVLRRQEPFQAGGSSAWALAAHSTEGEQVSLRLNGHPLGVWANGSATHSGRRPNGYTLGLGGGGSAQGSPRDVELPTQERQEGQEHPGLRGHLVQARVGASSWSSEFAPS

With `COC(C)(C)CN1CCN(c2cc3nc(-c4ccco4)nn3c(N)n2)CC1` [Compound 6, 5-Amino-2-(2-furyl)-7-(4-(2-methoxy-2-methylpropyl)piperazinyl)[1,2,4]triazolo[1,5-c]pyrimidine], in series [1], the “Remission ratio (%)” value turned out to be 78% and the Total score is 11. For the same molecule, in series [2], the inhibition in vivo at 10 mg/kg amounted to 84% and the Total score came to 8.
Regarding `Nc1nc(N2CCN(Cc3ccc4c(c3)NC(=O)CO4)CC2)cc2nc(-c3ccco3)nn12` [Compound 27, 5-Amino-2-(2-furyl)-7-(4-(3-oxo-3,4-dihydro-2H-benzo[1,4]oxazin-6-ylmethyl)piperazinyl)[1,2,4]triazolo[1,5-c]pyrimidine], the “Rat A2A receptor inhibition ratio (%)” value on Rat A2A receptor stood at 96%. Besides, in series [2], the inhibition in vivo at 10 mg/kg amounted to 92% and the Total score is reported as 4.
The melting point is the temperature of the solid-liquid transition. In turn, `COC(C)(C)CCN1CCN(c2cc3nc(-c4ccco4)nn3c(N)n2)CC1` [Compound 11, 5-Amino-2-(2-furyl)-7-(4-(3-methoxy-3-methylbutyl)piperazinyl)[1,2,4]triazolo[1,5-c]pyrimidine] gave a melting point of 194 to 195 °C. Also, the “Rat A2A receptor inhibition ratio (%)” value on Rat A2A receptor is listed as 88%.
On the same counts, the results for `Nc1nc(N2CCN(Cc3cn4ccccc4n3)CC2)cc2nc(-c3ccco3)nn12` [Compound 15, 5-Amino-2-(2-furyl)-7-(4-(imidazo[1,2-a]pyridin-2-ylmethyl)piperazinyl)[1,2,4]triazolo[1,5-c]pyrimidine] are 220 to 221 °C and 92%.
Take `CC(C)(O)CCCN1CCN(c2cc3nc(-c4ccco4)nn3c(N)n2)CC1` [Compound 13, 5-Amino-2-(2-furyl)-7-(4-(4-hydroxy-4-methylpentyl)piperazinyl)[1,2,4]triazolo[1,5-c]pyrimidine]: in series [2], the inhibition in vivo at 10 mg/kg was found to be 80% and the Total score came out at 10.
With `CC(O)(CCN1CCN(c2cc3nc(-c4ccco4)nn3c(N)n2)CC1)c1ccccc1` (stereo not shown) [Compound 9, 5-Amino-2-(2-furyl)-7-(4-(3-hydroxy-3-phenylbutyl)piperazinyl)[1,2,4]triazolo[1,5-c]pyrimidine], the melting point lay within 123 to 124 °C. Moreover, the “Rat A2A receptor inhibition ratio (%)” value at Rat A2A receptor is reported as 89%.
Turning to `CC(O)(CN1CCN(c2cc3nc(-c4ccco4)nn3c(N)n2)CC1)c1ccccc1` (stereo not shown) [Compound 3, 5-Amino-2-(2-furyl)-7-(4-(2-hydroxy-2-phenylpropyl)piperazinyl)[1,2,4]triazolo[1,5-c]pyrimidine], the melting point was 267 to 268 °C. The “Rat A2A receptor inhibition ratio (%)” value at Rat A2A receptor turned out to be 93%.
`Nc1nc(N2CCN(Cc3ccc4c(c3)OCC(=O)N4)CC2)cc2nc(-c3ccco3)nn12` [Compound 26, 5-Amino-2-(2-furyl)-7-(4-(3-oxo-3,4-dihydro-2H-benzo[1,4]oxazin-7-ylmethyl)piperazinyl)[1,2,4]triazolo[1,5-c]pyrimidine] returned a melting point of 287 to 288 °C. Further, the “Rat A2A receptor inhibition ratio (%)” value at Rat A2A receptor was 94%.
For `Nc1nc(N2CCN(Cc3ccc4nsnc4c3)CC2)cc2nc(-c3ccco3)nn12` [Compound 20, 5-Amino-7-(4-(benzo-2,1,3-thiadiazol-5-ylmethyl)piperazinyl)-2-(2-furyl)[1,2,4]triazolo[1,5-c]pyrimidine], in series [2], the inhibition in vivo at 10 mg/kg amounted to 90% and the Total score was determined as 5.
Molecule `CCC(C)(O)CCN1CCN(c2cc3nc(-c4ccco4)nn3c(N)n2)CC1` (stereo not shown) [Compound 8, 5-Amino-2-(2-furyl)-7-(4-(3-hydroxy-3-methylpentyl)piperazinyl)[1,2,4]triazolo[1,5-c]pyrimidine] came in with a melting point of 196 to 197 °C. The “Rat A2A receptor inhibition ratio (%)” value on Rat A2A receptor came to 84%.
Consider `Nc1nc(N2CCN(Cc3nc4ccccc4s3)CC2)cc2nc(-c3ccco3)nn12` [Compound 19, 5-Amino-7-(4-(benzothiazol-2-ylmethyl)piperazinyl)-2-(2-furyl)[1,2,4]triazolo[1,5-c]pyrimidine], for which the “Rat A2A receptor inhibition ratio (%)” value on Rat A2A receptor is reported as 95%. In addition, in series [1], the “Remission ratio (%)” value came to 62% and the Total score is 19. Further, in series [2], the inhibition in vivo at 10 mg/kg was determined as 90% and the Total score amounted to 5.
`CC(C)(O)CCCCN1CCN(c2cc3nc(-c4ccco4)nn3c(N)n2)CC1` [Compound 14, 5-Amino-2-(2-furyl)-7-(4-(5-hydroxy-5-methylhexyl)piperazinyl)[1,2,4]triazolo[1,5-c]pyrimidine]: in series [1], the “Remission ratio (%)” value worked out at 76% and the Total score turned out to be 12. For the same molecule, in series [2], the inhibition in vivo at 10 mg/kg came out at 82% and the Total score stood at 9.
For `Cc1onc(-c2ccccc2)c1CN1CCN(c2cc3nc(-c4ccco4)nn3c(N)n2)CC1` [Compound 25, 5-Amino-2-(2-furyl)-7-(4-(5-methyl-3-phenylisoxazol-4-ylmethyl)piperazinyl)[1,2,4]triazolo[1,5-c]pyrimidine], the melting point lay within 244 to 246 °C. On Rat A2A receptor, the “Rat A2A receptor inhibition ratio (%)” value is reported as 95%.
On to `Cc1cc(C(C)N2CCN(c3cc4nc(-c5ccco5)nn4c(N)n3)CC2)no1` (stereo not shown) [Compound 23, 5-Amino-2-(2-furyl)-7-(4-(1-(5-methylisoxazol-3-yl)ethyl)piperazinyl)[1,2,4]triazolo[1,5-c]pyrimidine], for which the “Rat A2A receptor inhibition ratio (%)” value on Rat A2A receptor is reported as 75%.
Take `Cc1nocc1CN1CCN(c2cc3nc(-c4ccco4)nn3c(N)n2)CC1` [Compound 24, 5-Amino-2-(2-furyl)-7-(4-(3-methylisoxazol-4-ylmethyl)piperazinyl)[1,2,4]triazolo[1,5-c]pyrimidine]: at Rat A2A receptor, the “Rat A2A receptor inhibition ratio (%)” value worked out at 96%. Moreover, in series [1], the “Remission ratio (%)” value is reported as 72% and the Total score is on record as 14. Besides, in series [2], the inhibition in vivo at 10 mg/kg is 96% and the Total score was 2.
Take `Nc1nc(N2CCN(Cc3cn4cccnc4n3)CC2)cc2nc(-c3ccco3)nn12` [Compound 17, 5-Amino-2-(2-furyl)-7-(4-(imidazo[1,2-a]pyrimidin-2-ylmethyl)piperazinyl)[1,2,4]triazolo[1,5-c]pyrimidine]: the melting point is 244 to 246 °C. Further, the “Rat A2A receptor inhibition ratio (%)” value on Rat A2A receptor is given as 90%.
Consider `Cc1cc(CN2CCN(c3cc4nc(-c5ccco5)nn4c(N)n3)CC2C)no1` (stereo not shown) [Compound 22, 5-Amino-2-(2-furyl)-7-(3-methyl-4-(5-methylisoxazol-3-ylmethyl)piperazinyl)[1,2,4]triazolo[1,5-c]pyrimidine], for which, at Rat A2A receptor, the “Rat A2A receptor inhibition ratio (%)” value came to 84%. In series [1], the “Remission ratio (%)” value amounted to 74% and the Total score is recorded as 13. In series [2], the inhibition in vivo at 10 mg/kg is 98% and the Total score worked out at 1.
For the molecule `Nc1nc(N2CCN(CC3(O)CC3)CC2)cc2nc(-c3ccco3)nn12` [Compound 5, 5-Amino-2-(2-furyl)-7-(4-(1-hydroxycyclopropylmethyl)piperazinyl)[1,2,4]triazolo[1,5-c]pyrimidine], in series [1], the “Remission ratio (%)” value is recorded as 76% and the Total score is 12. In addition, in series [2], the inhibition in vivo at 10 mg/kg was 90% and the Total score is given as 5.
Turning to `CCC(C)(O)CN1CCN(c2cc3nc(-c4ccco4)nn3c(N)n2)CC1` (stereo not shown) [Compound 2, 5-Amino-2-(2-furyl)-7-(4-(2-hydroxy-2-methylbutyl)piperazinyl)[1,2,4]triazolo[1,5-c]pyrimidine], the melting point came to 212 °C. Moreover, the “Rat A2A receptor inhibition ratio (%)” value on Rat A2A receptor is 84%.
On to `CC(C)(O)CCN1CCN(c2cc3nc(-c4ccco4)nn3c(N)n2)CC1` [Compound 7, 5-Amino-2-(2-furyl)-7-(4-(3-hydroxy-3-methylbutyl)piperazinyl)[1,2,4]triazolo[1,5-c]pyrimidine], for which the Total score is 23 in series [1] and 8 in series [2].
For the molecule `CCC(O)(CC)CCN1CCN(c2cc3nc(-c4ccco4)nn3c(N)n2)CC1` [Compound 10, 5-Amino-2-(2-furyl)-7-(4-(3-ethyl-3-hydroxypentyl)piperazinyl)[1,2,4]triazolo[1,5-c]pyrimidine], the “Rat A2A receptor inhibition ratio (%)” value at Rat A2A receptor is on record as 87%. For the same molecule, in series [2], the inhibition in vivo at 10 mg/kg stood at 78% and the Total score stood at 11.
